{"source": "patent US20020177166A1", "about": "“Binding motif of a receptor” (MEDVET SCIENCE PTY.LTD., priority 2000, published 2002)", "key": {"[1]": {"system": "anti-phospho-585Ser recognition of βc", "assay": "Western blot of immunoprecipitated βc with peptide-preincubated anti-phospho-585Serβc antibody", "assay_type": "binding, human", "details": "100 fold molar excess of peptide", "protocol": "(§1) Lysates of HEK293T cells transfected with wild type βc were immunoprecipitated with anti-βc antibody (MAb 8E4). Immunoprecipitates were run on 7.5% SDS-PAGE under reducing conditions. […] M1 cells expressing GM-CSFRa and βc were either untreated (−) or stimulated with GM-CSF (2 ng/ml) for 30 seconds (+). Lysates of the M1 cells were immunoprecipitated with anti-βc antibody (MAb 8E4) and the immunoprecipitates run on 10% SDS-PAGE under reducing conditions.\nThese possibilities were initially addressed using ^32P-orthophosphate labelled HEK 293T cells transfected with the GM-CSF receptor (α and βc subunits). These cells were stimulated with GM-CSF, total βc was immunoprecipitated and examined for ^32P-labelling. This is most likely due to the presence of sixty serine and threonine residues in the intracellular region of βc, some of which may be constitutively phosphorylated."}, "[2]": {"target": "T1, PKA (Homo sapiens, UniProt P17612)", "T1 construct": "substrate Hisβc445-881 expressed in bacteria", "assay": "In vitro kinase assay, PKA phosphorylation of hisβc445-881 with peptide competition", "assay_type": "biochemical", "details": "200 mM peptides", "protocol": "Peptide competitions were also performed using 200 mM peptides containing the indicated sequences. b) The ability of PKA and CKII to phosphorylate Ser585 of hisβc445-881 was examined by immunoblot analysis using the anti-phospho-Ser585βc antibodies. Filters were probed firstly with anti-phospho-Ser585βc antibodies (top panel). […] Cells were then lysed and βc immunoprecipitated with 1C1. Ser585 phosphorylation of βc was determined using the anti-phospho-Ser585 antibodies (top panel). The filter was then stripped and re-probed with anti βc 1C1 antibodies.\nIn an effort to identify the kinase involved in the phosphorylation of Ser585, we firstly examined the ability of several kinases to phosphorylate the purified recombinant intracellular portion of βc (hisβc445-881) in vitro. Ser585 of βc lies within a SXXD motif which is known to be a CKII consensus phosphorylation site. Ser585 also lies within a RS motif which is a possible, but poor, PKA phosphorylation site. […] Additional bands for the PKA kinase reactions were evident due to the autocatalytic activity of PKA. […] In this experiment, the non-phospho-HSRSLP peptide is likely to act as a competitive substrate for phosphorylation of Ser585 of hisβc445-881 by PKA. […]"}, "[3]": {"system": "interaction of hisβc445-881 with p85 and 14-3-3", "assay": "PKA-phosphorylated hisβc445-881 Sepharose pull-down from COS-7 lysates with peptide competition", "assay_type": "binding", "details": "200 mM competing peptides, 1 hour at 4° C.", "protocol": "(a) analysis of PI 3-kinase activity. […] Cells were then lysed and phospho-tyrosine containing proteins were immunoprecipitated (2×10^7 cells/IP) using the 4G10 antibody. Immunoprecipitates were washed in 1× PI 3-kinase buffer (20 mM HEPES, pH 7.5, 5 mM MgCl2, 1 mM EGTA) and PI 3-kinase activity was analysed in a lipid kinase assay using phosphatidyl inositol and g^32PATP as substrates as described in the “Materials and Methods”. Autoradiogram of TLC plate is shown with ^32P-labelled phosphatidyl inositols (PIP) and the origin indicated. […] (b) CTL-EN cells were also examined for the association of βc with p85. […] Cells were then lysed and the βc immunoprecipitated (2×10^7 cells/IP) with the 1C1 anti-βc specific mAb. Immunoprecipitates were then subjected to SDS-PAGE, transferred to nitrocellulose and immunoblotted with anti-p85 (1 mg/ml) followed by detection with HRP-conjugated anti-rabbit IgG antibody and ECL. The filters were then stripped, probed with anti-SHP2 (1 mg/ml), stripped again and finally probed with 1C1 anti-βc (2 mg/ml). […] The association of hisβc445-881 with p85 was also assessed in pull-down experiments together with peptide competition. (c) List of peptides used in the hisbβc445-881 pull-down experiment. S refers to a phospho-serine residue. […]"}, "[4]": {"system": "TF-1", "assay": "TF-1 proliferation assay", "assay_type": "cell-based", "details": "recombinant human cytokine produced in E. coli", "protocol": "Acad. Sci., 91, 5838. Cytokine purity and quantitation was determined by HPLC analysis and Coomasie staining of SDS-PAGE separated proteins."}, "[5]": {"system": "585Ser phosphorylation of βc in M1 myeloid leukaemic cells", "assay": "585Ser phosphorylation of βc in M1 cells, immunoblot", "assay_type": "cell-based", "details": "2 ng/ml GM-CSF", "protocol": "as §1"}, "[6]": {"system": "Ser585 phosphorylation of βc in CTL-EN cells", "assay": "Ser585 phosphorylation of βc in CTL-EN cells expressing IL-3Ra and wtβc, immunoblot", "assay_type": "cell-based", "source_text": "(§2) The βc was immunoprecipitated and then subjected to immunoblot analysis using the anti-phospho-Ser585βc antibody. […] Immunoprecipitates were electrophoresed on a polyacrylamide gel and the amount of radiolabelled receptor immunoprecipitated was quantified using a phosphorImager.\n(§3) After various treatments, cells were lysed, βc was immunoprecipitated, and subjected to immunoblot analysis with the anti-phospho-Ser585 antibody."}, "[7]": {"system": "Ser585 phosphorylation of βc in MO7e cells", "assay": "Ser585 phosphorylation and 14-3-3 recruitment in MO7e cells", "assay_type": "cell-based", "details": "30 μM H89 for 15 minutes prior to IL-3", "source_text": "as §2, §3"}, "[8]": {"system": "CC[C@H](C)[C@H](NC(=O)[C@H](CC(=O)O)NC(=O)[C@@H]1CCCN1C(=O)[C@H](CC(C)C)NC(=O)[C@H](CO)NC(=O)[C@H](CCCNC(=N)N)NC(=O)[C@H](CO)NC(=O)[C@H](Cc1c[nH]cn1)NC(=O)[C@@H]1CCCN1C(=O)[C@@H]1CCCN1C(=O)CNC(=O)[C@H](CC(C)C)NC(=O)[C@@H](N)CS)C(=O)N[C@@H](CC(C)C)C(=O)NCC(=O)O", "assay": "purified protein, by the assay type", "details": "other: peptide as PKA substrate, hyperbolic regression analysis; 21.0 °C"}, "[9]": {"target": "T2, βc association with 14-3-3ζ (Homo sapiens, UniProt P63104)", "T2 construct": "expressed in transfected cells; host or cells: HEK293T (βc)", "T2 sequence (P63104 1-245)": "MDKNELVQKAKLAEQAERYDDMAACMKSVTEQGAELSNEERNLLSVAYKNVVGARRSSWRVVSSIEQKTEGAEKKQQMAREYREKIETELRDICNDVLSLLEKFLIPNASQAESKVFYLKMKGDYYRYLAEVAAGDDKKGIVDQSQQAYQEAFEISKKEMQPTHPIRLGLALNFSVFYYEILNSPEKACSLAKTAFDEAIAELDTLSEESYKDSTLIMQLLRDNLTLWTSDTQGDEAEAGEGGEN", "assay": "GST-14-3-3-sepharose precipitation of βc from transfected HEK293T lysates with peptide competition", "assay_type": "binding", "details": "for inhibition of βc association with GST-14-3-3 in pull-down: peptides 100 uM", "protocol": "Lysates of HEK293T cells transfected with βc were immunoprecipitated with GST-14-3-3-sepharose in the absence or in the presence of chemically-synthesised peptides (100 uM) containing a βc sequence ([…]) or a Raf-1 sequence ([…]). In the phosphorylated peptides the relevant phosphorylated serine is underlined. The experiment was performed on 7.5% SDS-PAGE under reducing conditions. The presence of βc in the precipitation experiment was determined by Western blotting with anti-βc antibody (MAb 1C1).\nLysates of HEK293T cells transfected with βc were precipitated with GST-14-3-3-sepharose in the absence or in the presence of various concentrations of chemically-synthesised peptides. […] The appropriate phosphorylated serine in each peptide is underlined. The experiment was performed on 7.5% SDS-PAGE under reducing conditions. The presence of βc in the immunoprecipitates was determined by Western blotting with anti-βc antibody (MAb 1C1).\nCells were lysed in lysis buffer for 30 mins at 4° C. followed by centrifugation of the lysate for 15 mins at 12,000 g 4° C. […] Samples were boiled for 5 mins in SDS sample load buffer in the presence of 2-mercaptoethanol before separating precipitated proteins by SDS-PAGE.\nCell lysates were precipitated or immunoprecipitated in the presence of various concentrations of the following peptides: βc peptide sequence […] either non phosphorylated or serine phosphorylated and a scrambled peptide […]. Raf1 peptides corresponding to the sequence […] were also used and were either non phosphorylated or serine phosphorylated. The corresponding phosphorylated serine in each peptide is underlined. Peptides were synthesised by Chiron Mimotopes, Melbourne, Australia. The presence of βc in either the immunoprecipitation or precipitation experiment was determined by Western blotting with anti-βc antibody (MAb 1C1)."}}, "note": "Ends that are not written are not given here."}
{"compound": "CLPLSGPDSHIRGPL [scrambled peptide]", "values": [{"measurement": "inhibition of anti-phospho-585Ser recognition of βc", "setting": "[1]", "value": "did not"}, {"measurement": "effect on phosphorylation of hisβc445-881 by PKA", "setting": "[2]", "value": "did not"}, {"measurement": "effect on interaction of p85 with hisβc445-881", "setting": "[3]", "value": "had no apparent effect on this interaction"}]}
{"compound": "GM-CSF: recombinant human GM-CSF produced in E. coli", "values": [{"measurement": "ED50 in TF-1 proliferation assay", "setting": "[4]", "value": 0.03, "unit": "ng/mL"}, {"measurement": "585Ser phosphorylation of βc", "setting": "[5]", "value": "strongly upregulated ^585Ser phosphorylation of βc"}]}
{"compound": "O=S(=O)(NCCNC/C=C/c1ccc(Br)cc1)c1cccc2cnccc12", "note": "[H89]", "values": [{"measurement": "effect on IL-3 induced phosphorylation of Ser585", "setting": "[6]; 30 μM H89 for 15 minutes prior to IL-3", "value": "significantly reduced the IL-3 induced phosphorylation of Ser585"}, {"measurement": "effect on IL-3 induced phosphorylation of Ser585", "setting": "[7]", "value": "significantly reduced the IL-3 induced phosphorylation of Ser585"}]}
{"compound": "PKA (Homo sapiens)", "values": [{"measurement": "Km", "setting": "[8]", "value": 376, "unit": "µM"}, {"measurement": "Vmax", "setting": "[8]", "value": 250, "unit": "nmol/min/mg"}]}
{"compound": "CLSQRQRSTSTPNVHM [serine phosphorylated Raf-1 peptide] (also: serine phosphorylated, position not given here)", "values": [{"measurement": "inhibition of βc association with GST-14-3-3 in pull-down", "setting": "[9]", "value": "able to inhibit βc association with 14-3-3"}]}
{"compound": "CPLSLRSKPSPGPGP", "values": [{"measurement": "inhibition of βc association with 14-3-3, dose dependence and specificity", "setting": "[9]; various concentrations of peptides (FIG. 8)", "value": "failed to inhibit this association"}]}
{"compound": "CLSQRQRSTSTPNVHM [nonphosphorylated Raf-1 peptide]", "values": [{"measurement": "inhibition of βc association with GST-14-3-3 in pull-down", "setting": "[9]", "value": "did not"}]}
{"compound": "CCCC(=O)Nc1ncnc2c1ncn2[C@@H]1O[C@@H]2COP(=O)(O)O[C@H]2[C@H]1OC(=O)CCC", "note": "[db-cAMP, dibutyryl cAMP]", "values": [{"measurement": "Ser585 phosphorylation of βc after stimulation", "setting": "[6]; 50 ng/ml IL-3, 50 μM forskolin or 100 μM dibutyryl cAMP", "value": "increased Ser585 phosphorylation"}]}
